This note sets out measurements from patent publication US9200005B2, “Inhibitor compounds of phosphodiesterase type 10A” (AbbVie Deutschland GmbH & Co. KG, priority 2013, dated 2015).

Structures can show the parent of a compound that is named as a salt.

Data set [1] is described as follows: Determination of the microsomal half-life / microsomal clearance, human liver microsomes. Type of data set: in vitro ADME. The note with it: 0.5 μM test substance, 0.25 mg of microsomal protein/mL, NADPH, 37° C. As to the method:
(§1) b) Determination of the Microsomal Half-Life:
(§2) The metabolic stability of the compounds of the invention was determined in the following assay.
(§3) The test substances were incubated in a concentration of 0.5 μM as follows:
(§4) 0.5 μM test substance are preincubated together with liver microsomes from different species (from rat, human or other species) (0.25 mg of microsomal protein/mL) in 0.05 M potassium phosphate buffer of pH 7.4 in microtiter plates at 37° C. for 5 min. The reaction is started by adding NADPH (1 mg/mL). After 0, 5, 10, 15, 20 and 30 min, 50 μl aliquots are removed, and the reaction is immediately stopped and cooled with the same volume of acetonitrile. The samples are frozen until analyzed. The remaining concentration of undegraded test substance is determined by MSMS. The half-life (T½) is determined from the gradient of the signal of test substance/unit time plot, it being possible to calculate the half-life of the test substance, assuming first order kinetics, from the decrease in the concentration of the compound with time. The microsomal clearance (mCl) is calculated from mCl=ln 2/T½/(content of microsomal protein in mg/mL)×1000 [mL/min/mg] (modified from references: Di, The Society for Biomoleculur Screening, 2003, 453-462; Obach, DMD, 1999 vol 27. N 11, 1350-1359).
A general note: Liver microsomes are a subcellular fraction often used to study metabolism.

The nature of data set [2]: Determination of the microsomal half-life / microsomal clearance, rat liver microsomes. The data set is classed as in vitro ADME. The note with it: 0.5 μM test substance, 0.25 mg of microsomal protein/mL, NADPH, 37° C. The protocol:
as §1, §2, §3, §4

On to “3-(4-fluorophenyl)-5-methyl-7-(pyridin-4-yl)thieno[2,3-d]pyridazin-4(5H)-one [Example 48]”, for which the “Human mCl” value in data set [1] is reported as “++ (++: <100 μl min^−1 mg^−1)”. In addition, the “Rat mCl” value in data set [2] is “++ (++: <100 μl min^−1 mg^−1)”.
With `Cn1nc(-c2ccncc2)c2scc(N3CCC(O)CC3)c2c1=O` [Example 4, 3-(4-hydroxypiperidin-1-yl)-5-methyl-7-(pyridin-4-yl)thieno[2,3-d]pyridazin-4(5H)-one], the “Human mCl” value in data set [1] is “++ (++: <100 μl min^−1 mg^−1)”. Besides, in data set [2], the “Rat mCl” value is “++ (++: <100 μl min^−1 mg^−1)”.
Take `Cn1nc(-c2ccncc2)c2scc(N3CCN(C(=O)OC(C)(C)C)CC3)c2c1=O` [Example 5, tert-butyl 4-[5-methyl-4-oxo-7-(pyridin-4-yl)-4,5-dihydrothieno[2,3-d]pyridazin-3-yl]piperazine-1-carboxylate]: the “Human mCl” value in data set [1] was “++ (++: <100 μl min^−1 mg^−1)”. Also, the “Rat mCl” value in data set [2] is listed as “++ (++: <100 μl min^−1 mg^−1)”.
Turning to `Cn1nc(-c2ccncc2)c2scc(-c3ccnnc3)c2c1=O` [Example 7, 5-methyl-3-(pyridazin-4-yl)-7-(pyridin-4-yl)thieno[2,3-d]pyridazin-4(5H)-one], in data set [1], the “Human mCl” value is “++ (++: <100 μl min^−1 mg^−1)”. Further, in data set [2], the “Rat mCl” value is listed as “+ (+: 100-220 μl min^−1 mg^−1)”.
For `Cn1nc(-c2ccncc2)c2scc(-c3ccc(F)cc3)c2c1=O` [Example 8, 3-(4-fluorophenyl)-5-methyl-7-(pyridin-4-yl)thieno[2,3-d]pyridazin-4(5H)-one], in that order: “+ (+: 100-220 μl min^−1 mg^−1)” and “+ (+: 100-220 μl min^−1 mg^−1)”.
For `COc1ncc(-c2csc3c(-c4ccncc4)nn(C)c(=O)c23)cn1` [Example 10, 3-(2-methoxypyrimidin-5-yl)-5-methyl-7-(pyridin-4-yl)thieno[2,3-d]pyridazin-4(5H)-one], in that order: “++ (++: <100 μl min^−1 mg^−1)” and “++ (++: <100 μl min^−1 mg^−1)”.
For `Cn1nc(-c2ccncc2)c2scc(N3CCNCC3)c2c1=O` [Example 12, 5-methyl-3-(piperazin-1-yl)-7-(pyridin-4-yl)thieno[2,3-d]pyridazin-4(5H)-one (dihydrochloride salt)], the “Human mCl” value in data set [1] was “++ (++: <100 μl min^−1 mg^−1)”. Also, the “Rat mCl” value in data set [2] is “++ (++: <100 μl min^−1 mg^−1)”.
Turning to `Cn1nc(-c2ccncc2)c2scc(CN3CCOCC3)c2c1=O` [Example 13, 5-methyl-3-(morpholin-4-ylmethyl)-7-(pyridin-4-yl)thieno[2,3-d]pyridazin-4(5H)-one], the “Human mCl” value in data set [1] was “+ (+: 100-220 μl min^−1 mg^−1)”. The “Rat mCl” value in data set [2] is on record as “+ (+: 100-220 μl min^−1 mg^−1)”.
In the case of `Cn1nc(-c2ccncc2)c2scc(-c3cccnc3)c2c1=O.O=C(O)C(F)(F)F` [Example 15, 5-methyl-3-(pyridin-3-yl)-7-(pyridin-4-yl)thieno[2,3-d]pyridazin-4(5H)-one bis(trifluoroacetate)], in data set [1], the “Human mCl” value is on record as “++ (++: <100 μl min^−1 mg^−1)”. Besides, the “Rat mCl” value in data set [2] (bis(trifluoroacetate)) is on record as “∘ (∘ not avialable or >220 μl min^−1 mg^−1)”.
`Cn1nc(-c2ccncc2)c2scc(-c3cc4ccccc4s3)c2c1=O.O=C(O)C(F)(F)F` [Example 23, 3-(1-benzothiophen-2-yl)-5-methyl-7-(pyridin-4-yl)thieno[2,3-d]pyridazin-4(5H)-one trifluoroacetate]: in data set [1], the “Human mCl” value is reported as “+ (+: 100-220 μl min^−1 mg^−1)”. Further, in data set [2], the “Rat mCl” value is reported as “+ (+: 100-220 μl min^−1 mg^−1)”.
Consider `Cn1nc(-c2ccncc2)c2scc(-c3cccc(-n4cccn4)c3)c2c1=O.O=C(O)C(F)(F)F.O=C(O)C(F)(F)F` [Example 24, 5-methyl-3-[3-(1H-pyrazol-1-yl)phenyl]-7-(pyridin-4-yl)thieno[2,3-d]pyridazin-4(5H)-one bis(trifluoroacetate)], for which the “Human mCl” value in data set [1] was “∘ (∘ not avialable or >220 μl min^−1 mg^−1)”. Moreover, the “Rat mCl” value in data set [2] is “+ (+: 100-220 μl min^−1 mg^−1)”.
Taken in the same sequence, the figures for `Cn1nc(-c2ccncc2)c2scc(-c3ccc(C#N)cc3)c2c1=O.O=C(O)C(F)(F)F` [Example 25, 4-[5-methyl-4-oxo-7-(pyridin-4-yl)-4,5-dihydrothieno[2,3-d]pyridazin-3-yl]benzonitrile trifluoroacetate] were “++ (++: <100 μl min^−1 mg^−1)” and “++ (++: <100 μl min^−1 mg^−1)”.
For `Cn1nc(-c2ccncc2)c2scc(-c3csc4ccccc34)c2c1=O.O=C(O)C(F)(F)F` [Example 26, 3-(1-benzothiophen-3-yl)-5-methyl-7-(pyridin-4-yl)thieno[2,3-d]pyridazin-4(5H)-one trifluoroacetate], the “Human mCl” value in data set [1] is “+ (+: 100-220 μl min^−1 mg^−1)”. The “Rat mCl” value in data set [2] is recorded as “∘ (∘ not avialable or >220 μl min^−1 mg^−1)”.
For `Cn1nc(-c2ccncc2)c2scc(-c3ccc(F)nc3)c2c1=O.O=C(O)C(F)(F)F.O=C(O)C(F)(F)F` [Example 27, 3-(6-fluoropyridin-3-yl)-5-methyl-7-(pyridin-4-yl)thieno[2,3-d]pyridazin-4(5H)-one bis(trifluoroacetate)], in that order: “++ (++: <100 μl min^−1 mg^−1)” and “++ (++: <100 μl min^−1 mg^−1)”.
Taken in the same sequence, the figures for `COc1cccc(-c2csc3c(-c4ccncc4)nn(C)c(=O)c23)c1.O=C(O)C(F)(F)F` [Example 30, 3-(3-methoxyphenyl)-5-methyl-7-(pyridin-4-yl)thieno[2,3-d]pyridazin-4(5H)-one trifluoroacetate] were “+ (+: 100-220 μl min^−1 mg^−1)” and “+ (+: 100-220 μl min^−1 mg^−1)”.
Taken in the same sequence, the figures for `Cn1nc(-c2ccncc2)c2scc(-c3cccc(F)c3)c2c1=O.O=C(O)C(F)(F)F` [Example 31, 3-(3-fluorophenyl)-5-methyl-7-(pyridin-4-yl)thieno[2,3-d]pyridazin-4(5H)-one trifluoroacetate] were “+ (+: 100-220 μl min^−1 mg^−1)” and “++ (++: <100 μl min^−1 mg^−1)”.
Take `Cn1nc(-c2ccncc2)c2scc(-c3cccc(C(=O)N4CCOCC4)c3)c2c1=O` [Example 32, 5-methyl-3-[3-(morpholin-4-ylcarbonyl)phenyl]-7-(pyridin-4-yl)thieno[2,3-d]pyridazin-4(5H)-one trifluoroacetate]: the “Human mCl” value in data set [1] is recorded as “++ (++: <100 μl min^−1 mg^−1)”. The “Rat mCl” value in data set [2] is “++ (++: <100 μl min^−1 mg^−1)”.
Regarding `Cn1nc(-c2ccncc2)c2scc(-c3ccc(NS(C)(=O)=O)cc3)c2c1=O.O=C(O)C(F)(F)F` [Example 33, N-{4-[5-methyl-4-oxo-7-(pyridin-4-yl)-4,5-dihydrothieno[2,3-d]pyridazin-3-yl]phenyl}methanesulfonamide trifluoroacetate], the “Human mCl” value in data set [1] was “++ (++: <100 μl min^−1 mg^−1)”. For the same molecule, the “Rat mCl” value in data set [2] is “∘ (∘ not avialable or >220 μl min^−1 mg^−1)”.
`Cn1nc(-c2ccncc2)c2scc(-c3ccsc3)c2c1=O.O=C(O)C(F)(F)F` [Example 34, 5-methyl-7-(pyridin-4-yl)-3-(thiophen-3-yl)thieno[2,3-d]pyridazin-4(5H)-one trifluoroacetate]: the “Human mCl” value in data set [1] was “++ (++: <100 μl min^−1 mg^−1)”. Further, the “Rat mCl” value in data set [2] is on record as “+ (+: 100-220 μl min^−1 mg^−1)”.
For the molecule `Cn1nc(-c2ccncc2)c2scc(-c3ccc4c(c3)CCO4)c2c1=O.O=C(O)C(F)(F)F` [Example 35, 3-(2,3-dihydro-1-benzofuran-5-yl)-5-methyl-7-(pyridin-4-yl)thieno[2,3-d]pyridazin-4(5H)-one trifluoroacetate], in data set [1], the “Human mCl” value was “+ (+: 100-220 μl min^−1 mg^−1)”. Further, the “Rat mCl” value in data set [2] is given as “+ (+: 100-220 μl min^−1 mg^−1)”.
For `Cn1nc(-c2ccncc2)c2scc(-c3ccccc3F)c2c1=O.O=C(O)C(F)(F)F` [Example 36, 3-(2-fluorophenyl)-5-methyl-7-(pyridin-4-yl)thieno[2,3-d]pyridazin-4(5H)-one trifluoroacetate], the “Human mCl” value in data set [1] is “++ (++: <100 μl min^−1 mg^−1)”. Further, in data set [2], the “Rat mCl” value was “++ (++: <100 μl min^−1 mg^−1)”.
With `Cn1cc(-c2csc3c(-c4ccncc4)nn(C)c(=O)c23)cn1.O=C(O)C(F)(F)F` [Example 37, 5-methyl-3-(1-methyl-1H-pyrazol-4-yl)-7-(pyridin-4-yl)thieno[2,3-d]pyridazin-4(5H)-one trifluoroacetate], in data set [1], the “Human mCl” value was “++ (++: <100 μl min^−1 mg^−1)”. The “Rat mCl” value in data set [2] was “+ (+: 100-220 μl min^−1 mg^−1)”.
For `COc1ccccc1-c1csc2c(-c3ccncc3)nn(C)c(=O)c12.O=C(O)C(F)(F)F` [Example 39, 3-(2-methoxyphenyl)-5-methyl-7-(pyridin-4-yl)thieno[2,3-d]pyridazin-4(5H)-one trifluoroacetate], in that order: “++ (++: <100 μl min^−1 mg^−1)” and “++ (++: <100 μl min^−1 mg^−1)”.
For `Cn1nc(-c2ccncc2)c2scc(-c3ccc(C(=O)NC4CC4)cc3)c2c1=O.O=C(O)C(F)(F)F` [Example 40, N-cyclopropyl-4-[5-methyl-4-oxo-7-(pyridin-4-yl)-4,5-dihydrothieno[2,3-d]pyridazin-3-yl]benzamide trifluoroacetate], in data set [1], the “Human mCl” value was “++ (++: <100 μl min^−1 mg^−1)”. Further, the “Rat mCl” value in data set [2] is listed as “++ (++: <100 μl min^−1 mg^−1)”.
